# Structures can show the parent of a compound that is named as a salt.
# Target: T1, AR (Homo sapiens, UniProt P10275)
# T1 construct: endogenous in cells; host or cells: VCaP cells
# T1 sequence (P10275 1-920): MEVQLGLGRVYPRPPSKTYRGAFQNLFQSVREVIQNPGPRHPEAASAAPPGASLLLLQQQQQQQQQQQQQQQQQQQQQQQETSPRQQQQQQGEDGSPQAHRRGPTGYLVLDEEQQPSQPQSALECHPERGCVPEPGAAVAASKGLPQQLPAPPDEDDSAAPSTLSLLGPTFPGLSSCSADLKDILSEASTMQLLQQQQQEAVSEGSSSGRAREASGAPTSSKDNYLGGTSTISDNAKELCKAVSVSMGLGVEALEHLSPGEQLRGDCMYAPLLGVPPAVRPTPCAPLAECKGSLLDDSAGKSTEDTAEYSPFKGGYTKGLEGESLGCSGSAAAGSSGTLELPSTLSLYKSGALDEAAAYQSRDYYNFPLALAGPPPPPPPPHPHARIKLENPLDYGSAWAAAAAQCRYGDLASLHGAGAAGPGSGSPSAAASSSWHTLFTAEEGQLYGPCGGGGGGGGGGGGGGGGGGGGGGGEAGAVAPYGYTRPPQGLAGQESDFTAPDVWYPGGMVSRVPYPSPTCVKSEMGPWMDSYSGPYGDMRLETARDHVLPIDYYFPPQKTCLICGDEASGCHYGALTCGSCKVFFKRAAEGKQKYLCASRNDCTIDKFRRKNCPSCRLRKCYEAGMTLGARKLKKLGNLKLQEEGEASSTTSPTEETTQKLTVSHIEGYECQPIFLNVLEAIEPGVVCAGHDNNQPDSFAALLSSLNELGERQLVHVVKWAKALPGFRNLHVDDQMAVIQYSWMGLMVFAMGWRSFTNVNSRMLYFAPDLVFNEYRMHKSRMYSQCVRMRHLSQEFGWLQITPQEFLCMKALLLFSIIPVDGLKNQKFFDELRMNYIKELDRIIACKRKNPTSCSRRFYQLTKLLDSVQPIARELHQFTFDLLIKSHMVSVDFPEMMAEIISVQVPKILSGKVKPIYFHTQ
# Assay: VCAP AR Degradation Assay
# Format: cell-based
# Conditions: for Y (AR degradation efficiency, % of DMSO control): class symbols *; for DC50: class symbols A-C, read-out: DC50
# Method in brief: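 AR protein in lysates quantified by sandwich ELISA after 24 h exposure of VCaP cells at 37 °C to 10 concentrations (1:3 steps, 5 μM top, final). Four-parameter logistic fit of percent-of-DMSO levels gave DC50 (50% degradation), EC50 and minimal AR level Y.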
SMILES,"Y (AR degradation efficiency, % of DMSO control)",DC50 [nM]
"C[C@@H]1CN(CC(=O)Nc2cccc(NC3CCC(=O)NC3=O)c2)[C@H](C)CN1CCOc1ccc(N2C(=S)N(c3cnc(C#N)c(C(F)(F)F)c3)C(=O)C2(C)C)cc1C1CC1 (stereo partly drawn) [Example 234, 2-((2R,5R)-4-(2-(4-(3-(6-cyano-5-(trifluoromethyl)pyridin-3-yl)-5,5-dimethyl-4-oxo-2-thioxoimidazolidin-1-yl)-2-cyclopropylphenoxy)ethyl)-2,5-dimethylpiperazin-1-yl)-N-(3-(2,6-dioxopiperidin-3-ylamino)phenyl)acetamide]",* (0<Y<=25%),< 100
"CCc1cc(N2C(=S)N(c3ccc(C#N)c(C(F)(F)F)c3)C(=O)C2(C)C)ccc1OCCN1CC2CCC(C1)N2CC(=O)Nc1cccc(NC2CCC(=O)NC2=O)c1 (stereo not drawn) [Example 177, 2-(3-(2-(4-(3-(4-cyano-3-(trifluoromethyl)phenyl)-5,5-dimethyl-4-oxo-2-thioxoimidazolidin-1-yl)-2-ethylphenoxy)ethyl)-3,8-diazabicyclo[3.2.1]octan-8-yl)-N-(3-(2,6-dioxopiperidin-3-ylamino)phenyl)acetamide]",* (0<Y<=25%),100 to 500
"N#Cc1ccc(N2C(=O)C3(CCOC3)N(c3ccc(OCCN4CCN(CC(=O)Nc5cc(Cl)cc(NC6CCC(=O)NC6=O)c5)CC4)c(F)c3)C2=S)cc1C(F)(F)F (single isomer, unassigned) [Example 54, N-(3-chloro-5-(2,6-dioxopiperidin-3-ylamino)phenyl)-2-(4-(2-(4-(3-(4-cyano-3-(trifluoromethyl)phenyl)-4-oxo-2-thioxo-7-oxa-1,3-diazaspiro[4.4]nonan-1-yl)-2-fluorophenoxy)ethyl)piperazin-1-yl)acetamide]",* (0<Y<=25%),< 100
"CCc1cc(N2C(=S)N(c3cnc(C#N)c(C(F)(F)F)c3)C(=O)C23CCC3)ccc1OCCN1C[C@@H]2CC[C@H]1CN2CC(=O)Nc1cccc(NC2CCC(=O)NC2=O)c1 (stereo partly drawn) [Example 172, 2-((1S,4S)-5-(2-(4-(7-(6-cyano-5-(trifluoromethyl)pyridin-3-yl)-8-oxo-6-thioxo-5,7-diazaspiro[3.4]octan-5-yl)-2-ethylphenoxy)ethyl)-2,5-diazabicyclo[2.2.2]octan-2-yl)-N-(3-(2,6-dioxopiperidin-3-ylamino)phenyl)acetamide]",*** (35%<Y<50%),100 to 500
"CCc1c(OCCN2C[C@@H](C)N(CC(=O)Nc3cccc(NC4CCC(=O)NC4=O)c3)[C@@H](C)C2)ccc(N2C(=S)N(c3ccc(C#N)c(C(F)(F)F)c3)C(=O)C2(C)C)c1C (stereo partly drawn) [Example 270, 2-((2R,6S)-4-(2-(4-(3-(4-cyano-3-(trifluoromethyl)phenyl)-5,5-dimethyl-4-oxo-2-thioxoimidazolidin-1-yl)-2-ethyl-3-methylphenoxy)ethyl)-2,6-dimethylpiperazin-1-yl)-N-(3-(2,6-dioxopiperidin-3-ylamino)phenyl)acetamide]",** (25%<Y<=35%),100 to 500
"C[C@@H]1CN(CCOc2ccc(N3C(=S)N(c4ccc(C#N)c(C(F)(F)F)c4)C(=O)C3(C)C)cc2CC(F)F)CCN1CC(=O)Nc1cc(NC2CCC(=O)NC2=O)ccc1F (stereo partly drawn) [Example 156, 2-((R)-4-(2-(4-(3-(4-cyano-3-(trifluoromethyl)phenyl)-5,5-dimethyl-4-oxo-2-thioxoimidazolidin-1-yl)-2-(2,2-difluoroethyl)phenoxy)ethyl)-2-methylpiperazin-1-yl)-N-(5-(2,6-dioxopiperidin-3-ylamino)-2-fluorophenyl)acetamide]",* (0<Y<=25%),< 100
"CCc1cc(N2C(=S)N(c3ccc(C#N)c(C(F)(F)F)c3)C(=O)C23CCC3)ccc1OCCN1CCN(CC(=O)Nc2cc(F)cc(NC3CCC(=O)NC3=O)c2)[C@H](C)C1 (stereo partly drawn) [Example 104, 2-((R)-4-(2-(4-(7-(4-cyano-3-(trifluoromethyl)phenyl)-8-oxo-6-thioxo-5,7-diazaspiro[3.4]octan-5-yl)-2-ethylphenoxy)ethyl)-2-methylpiperazin-1-yl)-N-(3-(2,6-dioxopiperidin-3-ylamino)-5-fluorophenyl)acetamide]",* (0<Y<=25%),< 100
"CCc1cc(N2C(=S)N(c3cnc(C#N)c(C(F)(F)F)c3)C(=O)C2(C)C)ccc1OCCN1CCN(CC(=O)Nc2cc(Cl)cc(NC3CCC(=O)NC3=O)c2)[C@@H](C)C1 (stereo partly drawn) [Example 131, N-(3-chloro-5-(2,6-dioxopiperidin-3-ylamino)phenyl)-2-((S)-4-(2-(4-(3-(6-cyano-5-(trifluoromethyl)pyridin-3-yl)-5,5-dimethyl-4-oxo-2-thioxoimidazolidin-1-yl)-2-ethylphenoxy)ethyl)-2-methylpiperazin-1-yl)acetamide]",* (0<Y<=25%),< 100
"C[C@@H]1CN(CCOc2ccc(N3C(=S)N(c4cnc(C#N)c(C(F)(F)F)c4)C(=O)C34CCC4)cc2C2CC2)C[C@H](C)N1CC(=O)Nc1cccc(NC2CCC(=O)NC2=O)c1 (stereo partly drawn) [Example 196, 2-((2S,6R)-4-(2-(4-(7-(6-cyano-5-(trifluoromethyl)pyridin-3-yl)-8-oxo-6-thioxo-5,7-diazaspiro[3.4]octan-5-yl)-2-cyclopropylphenoxy)ethyl)-2,6-dimethylpiperazin-1-yl)-N-(3-(2,6-dioxopiperidin-3-ylamino)phenyl)acetamide]",* (0<Y<=25%),< 100
"CCc1cc(N2C(=S)N(c3ccc(C#N)c(C(F)(F)F)c3)C(=O)C2(C)C)ccc1CCCN1CCN(CC(=O)Nc2cc(F)cc(NC3CCC(=O)NC3=O)c2)CC1 (stereo not drawn) [Example 88, 2-(4-(3-(4-(3-(4-cyano-3-(trifluoromethyl)phenyl)-5,5-dimethyl-4-oxo-2-thioxoimidazolidin-1-yl)-2-ethylphenyl)propyl)piperazin-1-yl)-N-(3-(2,6-dioxopiperidin-3-ylamino)-5-fluorophenyl)acetamide]",* (0<Y<=25%),< 100
"CCc1cc(N2C(=S)N(c3cnc(C#N)c(C(F)(F)F)c3)C(=O)C2(C)C)ccc1OCCN1C[C@@H](C)N(CC(=O)Nc2cc(Cl)cc(NC3CCC(=O)NC3=O)c2)C[C@H]1C (stereo partly drawn) [Example 169, N-(3-chloro-5-(2,6-dioxopiperidin-3-ylamino)phenyl)-2-((2R,5R)-4-(2-(4-(3-(6-cyano-5-(trifluoromethyl)pyridin-3-yl)-5,5-dimethyl-4-oxo-2-thioxoimidazolidin-1-yl)-2-ethylphenoxy)ethyl)-2,5-dimethylpiperazin-1-yl)acetamide]",* (0<Y<=25%),< 100
"CCc1cc(N2C(=S)N(c3cnc(C#N)c(C(F)(F)F)c3)C(=O)C2(C)C)ccc1OCCN1C[C@@H](C)N(CC(=O)Nc2cccc(NC3CCC(=O)NC3=O)c2)[C@@H](C)C1 (stereo partly drawn) [Example 151, 2-((2R,6S)-4-(2-(4-(3-(6-cyano-5-(trifluoromethyl)pyridin-3-yl)-5,5-dimethyl-4-oxo-2-thioxoimidazolidin-1-yl)-2-ethylphenoxy)ethyl)-2,6-dimethylpiperazin-1-yl)-N-(3-(2,6-dioxopiperidin-3-ylamino)phenyl)acetamide]",* (0<Y<=25%),< 100
"CC1(C)C(=O)N(c2ccc(C#N)c(C(F)(F)F)c2)C(=S)N1c1ccc(OCCN2CCN(CC(=O)Nc3cccc(NC4CCC(=O)NC4=O)c3)CC2)c(Cl)c1 (stereo not drawn) [Example 3, hydrochloride]",* (0<Y<=25%),< 100
"CCc1cc(N2C(=S)N(c3ccc(C#N)c(C(F)(F)F)c3)C(=O)C2(C)C)ccc1OCCN1CCN(C2(C(=O)Nc3cccc(NC4CCC(=O)NC4=O)c3)CC2)CC1 (stereo not drawn) [Example 139, 1-(4-(2-(4-(3-(4-cyano-3-(trifluoromethyl)phenyl)-5,5-dimethyl-4-oxo-2-thioxoimidazolidin-1-yl)-2-ethylphenoxy)ethyl)piperazin-1-yl)-N-(3-(2,6-dioxopiperidin-3-ylamino)phenyl)cyclopropanecarboxamide]",* (0<Y<=25%),< 100
"CC(C)c1cc(N2C(=S)N(c3ccc(C#N)c(Cl)c3)C(=O)C2(C)C)ccc1OCCN1C[C@@H](C)N(CC(=O)Nc2cc(F)cc(NC3CCC(=O)NC3=O)c2)[C@@H](C)C1 (stereo partly drawn) [Example 251, 2-((2S,6R)-4-(2-(4-(3-(3-chloro-4-cyanophenyl)-5,5-dimethyl-4-oxo-2-thioxoimidazolidin-1-yl)-2-isopropylphenoxy)ethyl)-2,6-dimethylpiperazin-1-yl)-N-(3-(2,6-dioxopiperidin-3-ylamino)-5-fluorophenyl)acetamide]",* (0<Y<=25%),< 100

# Source: US12404241B2 (Celgene Corporation, priority 2018, dated 2025)
